Measured values: patent US10933093B2, “Compositions and methods of treating a T cell mediated disorder” (CASE WESTERN RESERVE UNIVERSITY, priority 2009, dated 2021)

How the values were obtained:
[1] = test system: anti-CD3/CD28 stimulated CD4^+ cells; test: qPCR of complement and FoxP3 mRNA in anti-CD3/CD28 stimulated CD4+ cells; type: cell-based, C57BL/6 mice; conditions: for FoxP3 mRNA transcription: anti-CD3/28 stimulated naive CD4+ cells, C5a 100 ng/ml, 1 hr; for transcription of complement genes (complement mRNA): qPCR
Experimental: FIGS. 3(A-I) illustrate graphs showing: A) 1×10^6 CD62L^hiCD25^−CD4^+ cells from WT or C3aR^−/−C5aR^−/− mice were incubated with anti-CD3/CD28 Dynabead activation beads, 5 ng/ml rhIL-2, and 1×10^5 CD11c^+ WT DCs for 3 days. The CD4^+ cell and DC partners were sorted, after which the DCs were assayed for B7 family members (*P<0.01; **P<0.03; ***P=0.07) and the CD4^+ cells were assayed for B7 coinhibitory counter-receptors by flow. B) 1×10^6 CD62L^hiCD25^−CD4^+ cells from WT mice were incubated with anti-CD3/CD28 Dynabead activation beads, 5 ng/ml rhIL-2, and 1×10^5 CD11c^+ WT DCs for 3 days±10 nM C3aR-A/C5aR-A or ±5 ng/ml rhTGF-fβ1. The CD4^+ cell and DC partners were sorted, after which the cells were assayed as in (A; *P<0.01 C3aR-A/C5aR-A vs. TGF-β1). C) 1×10^6 CD62L^hiCD25^− CD4^+ cells from WT or C3aR^−/−C5aR^−/− were incubated with anti-CD3/CD28 Dynabead activation beads, 5 ng/ml rhIL-2, and 1×10^5 CD11c^+ WT DCs for 3 days in the presence of blocking anti-CTLA-4, anti-PD-1, or anti-ICOS-L Abs and percent FoxP3^+ cells assayed by flow cytometry. D) 1×10^6 CD62L^hiCD25^− CD4^+ cells from WT, ICOS^−/−, or PD-1^−/− were incubated with anti-CD3/CD28 Dynabead activation beads, 5 ng/ml rhIL-2, and […] CD11c^+ WT or PD-L1^−/− DCs for 3 days in the presence of blocking anti-CTLA-4, anti-PD-1, or anti-ICOS-L Abs and percent FoxP3^+ cells assayed by flow cytometry. E) Anti-CD3/CD28 stimulated CD4^+ cells were treated with TGF-β1 or buffer and complement mRNA transcripts were assayed by qPCR. F-H) 1×10^4 CD62L^hiCD25^− CD4^+ cells from C57BL/6 mice were incubated with anti-CD3/CD28 Dynabeads and 5 ng/ml rhIL-2 for 3 days in the presence of TGF-β, TGF-β+IL-6, or IL-6 after which cells were assayed for (F) C3 mRNA expression by qPCR, (G) C3 and C5a generation by ELSIA, and (H) C3aR and C5aR surface expression by flow cytometry. I) C57BL/6 CD4^+ T cells were incubated for 1 hr with anti-CD3/CD28±100 ng/ml C5a and FoxP3 mRNA was quantitated by qPCR.
For C3aR/C5aR signaling to be absent, local complement production by interacting DCs and CD4^+ cells must not occur or be suppressed. […] As a first test of this, we incubated anti-CD3/CD28 stimulated CD4^+ cells in the presence and absence of TGF-β1. […] To test how IL-6 affects CD4^+ cell complement production, we added IL-6 to naive CD4^+ cells. […]
[…] for 5 min at 20° C. using Trizol (Invitrogen, Carlsbad, Calif.) according to the manufacturer. When C3aR and C5aR mRNAs were analyzed, preparations were treated with DNase I (standard protocol) to remove genomic DNA. cDNAs were synthesized by incubating 20 μl of mRNAs in Sprint PowerScript Single Shots (Clontech, Mountain View, Calif.). […]

[2] = test system: C3aR/C5aR expression; test: C3aR and C5aR surface expression by flow cytometry; type: cell-based, C57BL/6 mice; conditions: 3 days
Experimental: (§1) FIGS. 3(A-I) illustrate graphs showing: A) 1×10^6 CD62L^hiCD25^−CD4^+ cells from WT or C3aR^−/−C5aR^−/− mice were incubated with anti-CD3/CD28 Dynabead activation beads, 5 ng/ml rhIL-2, and 1×10^5 CD11c^+ WT DCs for 3 days. The CD4^+ cell and DC partners were sorted, after which the DCs were assayed for B7 family members (*P<0.01; **P<0.03; ***P=0.07) and the CD4^+ cells were assayed for B7 coinhibitory counter-receptors by flow. B) 1×10^6 CD62L^hiCD25^−CD4^+ cells from WT mice were incubated with anti-CD3/CD28 Dynabead activation beads, 5 ng/ml rhIL-2, and 1×10^5 CD11c^+ WT DCs for 3 days±10 nM C3aR-A/C5aR-A or ±5 ng/ml rhTGF-fβ1. The CD4^+ cell and DC partners were sorted, after which the cells were assayed as in (A; *P<0.01 C3aR-A/C5aR-A vs. TGF-β1). C) 1×10^6 CD62L^hiCD25^− CD4^+ cells from WT or C3aR^−/−C5aR^−/− were incubated with anti-CD3/CD28 Dynabead activation beads, 5 ng/ml rhIL-2, and 1×10^5 CD11c^+ WT DCs for 3 days in the presence of blocking anti-CTLA-4, anti-PD-1, or anti-ICOS-L Abs and percent FoxP3^+ cells assayed by flow cytometry. […] I) C57BL/6 CD4^+ T cells were incubated for 1 hr with anti-CD3/CD28±100 ng/ml C5a and FoxP3 mRNA was quantitated by qPCR. […]

[3] = test system: DC-CD4^+ cell C3a/C5a production; test: C3a/C5a generation by ELISA; type: cell-based, C57BL/6 mice; conditions: 3 days
Experimental: as §1, with “TGF-β1).” for “TGF-β1). C) 1×10^6 CD62L^hiCD25^− CD4^+ cells from WT or C3aR^−/−C5aR^−/− were incubated with anti-CD3/CD28 Dynabead activation beads, 5 ng/ml rhIL-2, and 1×10^5 CD11c^+ WT DCs for 3 days in the presence of blocking anti-CTLA-4, anti-PD-1, or anti-ICOS-L Abs and percent FoxP3^+ cells assayed by flow cytometry.”
For C5a, C3a, IL-2, IL-10, and IL-6, capture and biotinylated detection Ab pairs were purchased from BD Biosciences. […] Reactions were terminated using 1N H2SO4 and plates were read using a SpectraMax M2 fluorimeter. • Induction and Evaluation of EAE

[4] = test system: human CD45RA^+CD25^−CD4^+ cells; test: Human iTreg preparation and human Treg suppression assay; type: cell-based
Experimental: FIGS. 5(A-G) illustrate graphs showing, A-C) EAE was induced in FoxP3-GFP knockin mice and 10 days after disease onset, CD4 cells were isolated from spleens and lymph nodes and sorted on GFP. 4×10^6 GFP negative cells were adoptively transferred into Rag2^−/− mice. The mice were subsequently injected with 1×10^6 FoxP3-GFP positive cells or PBS after which A) weight change, B) clinical scores, and C) percent FoxP3^+ cells were assayed. D-E) EAE was induced in WT and C3aR^−/−C5aR^−/− mice and at day 12 post disease induction draining LN cells were harvested and assayed for D) % FoxP3^+ cells, and E) suppressive capacity as above. F) EAE was induced in FoxP3-GFP knockin mice and 10 days after induction mice were treated with buffer control, C3aR-A/C5aR-A, or ex vivo generated FoxP3^+ Tregs (from FoxP3-GFP mice with C3aR-A/C5aR-A), after which […]) clinical scores were assessed. G) CD25^+ cells from 1×10^6 CD25^−CD4^+ Human T cells isolated by flow cytometry and incubated with soluble anti-CD3, IL-2, and autologous DCs in the presence and absence of TGF-β, C3aR-A/C5aR-A, or anti-C3a/C5a mAbs for 3 days were incubated with CFSE labeled autologous naive T cells, anti-CD3, and autologous DCs and percent dividers determined 3 days thereafter by CFSE dilution. […]

[5] = test system: naive CD4^+ cells; test: FoxP3+ iTreg induction from naive CD4+ cells stimulated with anti-CD3, IL-2 and DCs (flow cytometry); type: cell-based, mice
[6] = test system: iTregs; test: Costimulatory molecule expression of iTregs by flow cytometry; type: cell-based, mice; conditions: higher
Experimental: as §1

[7] = test system: CellTracker Red-labeled OT-II cells; test: Murine Treg suppression assay; type: cell-based, mice; conditions: cells from stimulated naive C3−/−C5−/− CD4+ cells, C5a added

Molecule	FoxP3 mRNA transcription [1]	transcription of complement genes (complement mRNA) [1]	C3aR/C5aR expression [2]	DC-CD4+ cell C3a/C5a production [3]	costimulatory molecules on human iTregs (phenotyping) ([4]; human iTregs)	suppression by CD25+ (FoxP3+) cells of CFSE-labeled CD25−CD4+ cells ([4]; human, equal number of sorted CD25+ cells, DCs, anti-CD3, same individual)	FoxP3+ cell induction ([5]; anti-CD3/CD28 stimulated CD4+ cells, added TGF-β1)	costimulatory molecule expression of iTregs generated with exogenous TGF-β1 relative to those generated by C3aR/C5aR antagonism [6]	iTreg induction ([5]; naive C3−/−C5−/− CD4+ cells stimulated with anti-CD3, DCs and IL-2, C5a added)	suppressor function [7]
IL-6: cytokine IL-6 added to naive CD4+ cells	inhibited	upregulated	upregulated	evoked						
TGF-β1: human TGF-β1 from Prospec Bio		abolished	did neither	did neither	showed costimulatory molecules	little effect	induced FoxP3^+ cells	3-6 fold		
C5a: Murine C5a from Cell Sciences, Inc (protein, UniProt P06684 679-755, looked up, C5a anaphylatoxin, Murine C5a from Cell Sciences, Inc) C5a anaphylatoxin: NLHLLRQKIEEQAAKYKHSVPKKCCYDGARVNFYETCEERVARVTIGPLCIRAFNECCTIANKIRKESPHKPVQLGR	inhibited								blocked	blocked
